# Measured values taken from PMC8765437, “GSK3640254 Is a Novel HIV-1 Maturation Inhibitor with an Optimized Virology Profile” (Antimicrobial Agents and Chemotherapy, 2022).
# Read-outs that look alike come from different tables or passages of the source.
# Test system: NLRepRlucP373S viruses containing Gag SDMs or gag/pr genes from clinical isolates
# Test: Multiple-cycle replication assay, NLRepRluc reporter viruses in MT-2 cells, luciferase endpoint
# Assay type: cell-based, HIV-1
# Excerpt: Multiple-cycle assays using recombinant viruses or clinical isolates were used to assess MI antiviral activity as described previously ([10]). pNLRepRlucP373S (the P373S change is in the Gag gene and converts an outlier polymorphism in the NL4-3 gene to the prevalent amino acid in the population) plasmids containing SDMs in Gag or gag/pr regions from clinical isolates were transfected into HEK 293T cells, and the supernatant containing recombinant virus was harvested after 4 to 5 days. Virus was used to infect MT-2 cells in the presence of a 3-fold serially diluted compound at a final dimethyl sulfoxide (DMSO) concentration of 1%. The inocula of the reporter viruses were determined based on the luciferase activity detected on day 4 postinfection. The MOI (ratio of infectious virions to target cells) of reporter-free laboratory strains and clinical isolates was 0.005, as derived from a tissue culture infectious dose study. Clinical isolates or reporter-free viruses were examined in the reporter CEM-NKR-CCR5-Luc cells or PBMCs at MOIs ranging from 0.005 to 0.01. Each infection started with a drug-free preincubation of the cell-virus mixtures, performed at 37°C and 5% CO2 for either 1 h at 2 times the final cell density (reporter viruses) or 1 h (reporter-free laboratory strains) or 3 h (clinical isolates) using cell pellets in 0.5 mL of medium. After preincubation, cell-virus mixtures were added to compound-containing 96-well plates for a final cell density of either 10,000 (MT-2 cells for reporter viruses), 20,000 (MT-2 and PM1 cells for reporter-free laboratory strains), 200,000 (PBMCs for clinical isolates), or 500,000 (CEM-NKR-CCR5-Luc for reporter-free laboratory strains) cells per well. The CEM-NKR-CCR5-Luc cell assay was performed in the presence of Polybrene (10 μg/mL). Virus growth was determined on days 4 to 5 postinfection for reporter variants or days 5 to 11 for the other viruses. The reporter viruses were detected by a luciferase assay according to manufacturer protocols (Brite-Glo luciferase kit [Promega] for CEM-NKR-CCR5-Luc cells and Dual-Luciferase Reporter 1000 assay system [Promega] for the other cells), and luminescence was detected on a Wallac Trilux. The growth of clinical isolates in PBMCs was quantitated by reverse transcriptase activity in a 96-well scintillation proximity assay (SPA). Twenty microliters of culture supernatants was mixed with 40 μL of reaction cocktail (62.5 mM Tris-HCl [pH 7.8], 100 mM KCl, 0.0625% NP-40, 2.5 mM dithiothreitol [DTT], 6.25 mM MgCl2, 1 mM EGTA, 6.25 μg/mL of poly rA, 2.5 μg/mL of streptavidin SPA beads prebound with biotinylated-dT12-18, and 1 μCi of [^3H]TTP). Mixtures were incubated at 37°C for ∼3 h and quenched with 100 μl of 0.25 M EDTA per well. Luminescence was detected on a Wallac Trilux programmed for tritium counting with SPA beads in opaque plates. The growth of the reporter-free laboratory M-tropic strains and clinical isolates was monitored by a p24 enzyme-linked immunosorbent assay (ELISA; PerkinElmer Life Sciences, Waltham, MA) performed on culture supernatants. […] A 1:1,000 dilution of cell supernatant in PBS was generally observed to fall in the dynamic range of the endpoint signal.
# Maximal percent inhibition values were calculated as MPI = 100 – (mean signals at the 2 highest concentrations of compound/mean signal of 2 no-drug control wells) × 100.
smiles,measurement,setting,value
"C=C(C)[C@@H]1CC[C@]2(NCCN3CCS(=O)(=O)CC3)CC[C@]3(C)[C@H](CC[C@@H]4[C@@]5(C)CC=C(c6ccc(C(=O)O)cc6)C(C)(C)[C@@H]5CC[C@]43C)[C@@H]12 [GSK’795, reference compound]",MPI,A366V-containing viruses,−13 to 408%
same,EC50,"Human immunodeficiency virus 1, MT2, Table S1, SDM A326T/V362I/V370A",≥ 3000 nM
same,EC50,"Human immunodeficiency virus 1, MT2, Table S1, SDM S368R/V370A",2 nM
same,EC50,"Human immunodeficiency virus 1, MT2, Table S1, SDM T332S/V362I/PrR41G",700 nM
same,EC50,"Human immunodeficiency virus 1, MT2, Table S1, SDM V362I/V370A",≥ 3000 nM
same,EC50,"Human immunodeficiency virus 1, MT2, Table S1, SDM V370A",6 nM
same,EC50,"Human immunodeficiency virus 1, MT2, Table S1, SDM V370A/ΔT371",7 nM
same,EC50,"Human immunodeficiency virus 1, MT2, Table S1, SDM ΔV370",6 nM
same,EC50,"Human immunodeficiency virus 1, MT2, Table S1, subtype B SDM Wild-type (V, QVT)",5 nM
same,EC50,"Human immunodeficiency virus 1, MT2, read-out: EC50 (range), Subtype C gag/pr viruses, n=11",3 to 22 nM
same,EC50,"Human immunodeficiency virus 1, MT2, read-out: EC50 (range), V362I only viruses, n=9",3 to 54 nM
same,EC50,"Human immunodeficiency virus 1, MT2, read-out: EC50 (range), Wild-type subtype B, n=5",1 to 6 nM
same,EC50,"Human immunodeficiency virus 1, MT2, read-out: Mean ± SD EC50, A366V-containing viruses (A366V, V362I/A366V, V362I/A366V/V370M, A366V/V370M)",> 3000 nM
same,EC50,"Human immunodeficiency virus 1, MT2, read-out: Mean ± SD EC50, SDM A326T/V362I/V370A",> 3000 nM
same,EC50,"Human immunodeficiency virus 1, MT2, read-out: Mean ± SD EC50, SDM A364V",> 3000 nM
same,EC50,"Human immunodeficiency virus 1, MT2, read-out: Mean ± SD EC50, SDM R361K/V362I/L363M",552 ± 971 nM
same,EC50,"Human immunodeficiency virus 1, MT2, read-out: Mean ± SD EC50, SDM T332S/V362I/prR41G",704 ± 606 nM
same,EC50,"Human immunodeficiency virus 1, MT2, read-out: Mean ± SD EC50, SDM V362I/V370A",> 3000 nM
same,EC50,"Human immunodeficiency virus 1, MT2, read-out: Mean ± SD EC50, SDM V370A",6 nM
same,EC50,"Human immunodeficiency virus 1, MT2, read-out: Mean ± SD EC50, SDM Wild type",5 ± 3 nM
same,EC50,"Human immunodeficiency virus 1, MT2, read-out: Mean ± SD EC50, SDM ΔV370",6 ± 2 nM
same,EC50,"Human immunodeficiency virus 1, MT2, read-out: Mean ± SD EC50, Subtype B gag/pr viruses, n=24",66 nM
same,EC50,"Human immunodeficiency virus 1, MT2, read-out: Mean ± SD EC50, Subtype C gag/pr viruses, n=11",9.1 ± 5.6 nM
same,EC50,"Human immunodeficiency virus 1, MT2, read-out: Mean ± SD EC50, V362I only viruses, n=9",11.1 ± 16.3 nM
same,EC50,"Human immunodeficiency virus 1, MT2, read-out: Mean ± SD EC50, V362I/ΔV370 virus, n=1",1400 nM
same,EC50,"Human immunodeficiency virus 1, MT2, read-out: Mean ± SD EC50, Wild-type subtype B (V362, Q369, V370, T371), n=5",2.8 ± 2.5 nM
same,EC50,"Human immunodeficiency virus 1, MT2, read-out: Median EC50, Subtype B gag/pr viruses, n=24",5 nM
same,EC50,"Human immunodeficiency virus 1, MT2, read-out: Median EC50, Subtype C gag/pr viruses, n=11",7 nM
same,EC50,"Human immunodeficiency virus 1, MT2, read-out: Median EC50, V362I only viruses, n=9",5 nM
same,EC50,"Human immunodeficiency virus 1, MT2, read-out: Median EC50, Wild-type subtype B, n=5",1 nM
same,EC90,"Human immunodeficiency virus 1, MT2, read-out: PBA EC90, Table S1, SDM R361K/V362I/L363M",321000 nM
same,EC90,"Human immunodeficiency virus 1, MT2, read-out: PBA EC90, Table S1, SDM S368R/V370A",40 nM
same,EC90,"Human immunodeficiency virus 1, MT2, read-out: PBA EC90, Table S1, SDM T332S/V362I/PrR41G",422000 nM
same,EC90,"Human immunodeficiency virus 1, MT2, read-out: PBA EC90, Table S1, SDM V370A",50 nM
same,EC90,"Human immunodeficiency virus 1, MT2, read-out: PBA EC90, Table S1, SDM V370A/ΔT371",230 nM
same,EC90,"Human immunodeficiency virus 1, MT2, read-out: PBA EC90, Table S1, SDM ΔV370",1030 nM
same,EC90,"Human immunodeficiency virus 1, MT2, read-out: PBA EC90, Table S1, subtype B SDM Wild-type (V, QVT)",110 nM
same,EC90,"Human immunodeficiency virus 1, MT2, read-out: PBA EC90, subtype B gag/pr 4NRR (Wild-type)",70 nM
same,EC90,"Human immunodeficiency virus 1, MT2, read-out: PBA EC90, subtype B gag/pr 28-MDR (Wild-type)",100 nM
same,EC90,"Human immunodeficiency virus 1, MT2, read-out: PBA EC90, subtype B gag/pr 92BR014 (V370M)",370 nM
same,EC90,"Human immunodeficiency virus 1, MT2, read-out: PBA EC90, subtype B gag/pr 92BR018 (V, QAΔ)",970 nM
same,EC90,"Human immunodeficiency virus 1, MT2, read-out: PBA EC90, subtype B gag/pr 92TH014 (V362I)",670 nM
same,EC90,"Human immunodeficiency virus 1, MT2, read-out: PBA EC90, subtype B gag/pr 92TH026 (V362I)",210 nM
same,EC90,"Human immunodeficiency virus 1, MT2, read-out: PBA EC90, subtype B gag/pr 92US072 (V362I)",130 nM
same,EC90,"Human immunodeficiency virus 1, MT2, read-out: PBA EC90, subtype B gag/pr 92US729 (Wild-type)",70 nM
same,EC90,"Human immunodeficiency virus 1, MT2, read-out: PBA EC90, subtype B gag/pr 93BR008 (V362I)",120 nM
same,EC90,"Human immunodeficiency virus 1, MT2, read-out: PBA EC90, subtype B gag/pr 93BR009 (V370M)",130 nM
same,EC90,"Human immunodeficiency virus 1, MT2, read-out: PBA EC90, subtype B gag/pr 93BR017 (V, QAΔ)",600 nM
same,EC90,"Human immunodeficiency virus 1, MT2, read-out: PBA EC90, subtype B gag/pr 93BR022 (V, QAΔ)",630 nM
same,EC90,"Human immunodeficiency virus 1, MT2, read-out: PBA EC90, subtype B gag/pr 93TH0647 (V362I)",60 nM
same,EC90,"Human immunodeficiency virus 1, MT2, read-out: PBA EC90, subtype B gag/pr 93US141 (V362I)",250 nM
same,EC90,"Human immunodeficiency virus 1, MT2, read-out: PBA EC90, subtype B gag/pr 411-1-C (Wild-type)",40 nM
same,EC90,"Human immunodeficiency virus 1, MT2, read-out: PBA EC90, subtype B gag/pr 220162 (Wild-type)",600 nM
same,EC90,"Human immunodeficiency virus 1, MT2, read-out: PBA EC90, subtype B gag/pr 400024 (V370M)",79000 nM
same,EC90,"Human immunodeficiency virus 1, MT2, read-out: PBA EC90, subtype B gag/pr 400051 (V370A)",30 nM
same,EC90,"Human immunodeficiency virus 1, MT2, read-out: PBA EC90, subtype B gag/pr 1000038 (V362I/V370A)",977000 nM
